Experimental data: patent publication US20250228795A1, “ESTROGENIC COMPOUNDS AND METHODS OF USE” (laterion, Inc., priority 2022, published 2025)

Experiments:
[1] = tested on: MCF-7 breast cancer cells; assay: MCF-7 cell proliferation (viable cell counts), CC7 and six analogs; assay type: cell-based
Description: In order for long term menopausal hormone therapy to be a viable alternative to currently available therapeutic options it must not promote breast cancer. […] MCF-7 cells were incubated for 24 hr in the presence of medium (control), 1 nM […], or 5 μM of each of the compounds depicted in FIG. 4 (CC7 and six analogs, A9, A10, A11, A13, A15, and A20). Viable cell counts were determined by flow cytometry.
(§1) MCF-7 cells were plated at a density of 50,000 cells per well in 6-well tissue culture plates in DMEM/F12 supplemented with 5% stripped FBS. […] The cells were then detached with trypsin, neutralized with media containing 5% FBS, and resuspended. Appropriate amounts of cell suspension were placed in ISOTON II diluent (Thermo Fisher Scientific, Waltham, MA, USA) and the cell numbers were then measured using a Coulter Counter (Beckman, Brea, CA, USA).
(§2) Flow cytometry was performed based on a previously described method (Pan et al. 2016). Briefly, the cells were plated at a density of 500,000 cells per well in 6-well tissue culture dishes in DMEM/F-12 supplemented with 5% stripped FBS for 48 h. The cultured medium was then replaced by serum-free DMEM/F12 for 24 h. […] The culture medium was then aspirated, and the cells were washed with PBS, detached with trypsin and collected by centrifugation at 1700 rpm for 5 min. The cell pellets were washed with ice cold PBS followed by centrifugation at 1700 rpm for 10 min at room temperature. The cell pellets were resuspended in 500 μL PBS containing 50 μg/mL propidium iodide, 0.1% of triton X-100, 0.1% of sodium citrate, and 10 μg/mL of RNase. The cell suspensions were then analyzed with a BD LSR II Flow Cytometer (BD Biosciences, San Jose, CA, USA) in the Flow Cytometry facility at University of California, Berkeley and the percentage of cells in cell cycle phases were determined by using FlowJo 7.6.5 (FlowJo, LLC, Ashland, OR, USA).

KRT19 = assay: Gene expression assay (real-time PCR) in U2OS-ERα cells: KRT19; assay type: cell-based, Human; conditions: in combination with E2, U2OS-ERα cells, FIG. 5
Description: (§3) Human U2OS (osteosarcoma) cells expressing a tetracycline-regulated ERα (U2OS-ERα) were prepared, characterized, and maintained as previously described (Tee et al., 2004). The cells were maintained in phenol red-free Gibco DMEM/F-12 (Thermo Fisher Scientific, Waltham, MA, USA) supplemented with 5% charcoal-dextran stripped fetal bovine serum (FBS, Gemini Bio Products, West Sacramento, CA, USA), 100 units/mL penicillin and streptomycin, 50 μg/mL Fungizone, and 2 mM of glutamine. To maintain stable transfected cells, 50 μg/mL hygromycin B and 500 μg/mL of zeocin (Invitrogen, Waltham, MA, USA) were included in culture media.

FGR = assay: Gene expression assay (real-time PCR) in U2OS-ERα cells: reprogrammed gene FGR; assay type: cell-based, Human; conditions: FIG. 5
Description: as §3

[2] = tested on: MCF-7 breast cancer cells; assay: MCF-7 cell proliferation (viable cell counts), A9 and its four analogs; assay type: cell-based
Description: Viable cell counts were determined by flow cytometry.
as §1, with “USA)” for “USA).”
as §2

ERα [3] = target: T1, ERα (Homo sapiens, UniProt P03372); assay: Luciferase activity in ERE-TK-Luc/ERα-transfected Ishikawa cells; assay type: cell-based; parameters: expressed in transfected cells; host or cells: Ishikawa cells; conditions: FIG. 6
T1 sequence (P03372 1-595): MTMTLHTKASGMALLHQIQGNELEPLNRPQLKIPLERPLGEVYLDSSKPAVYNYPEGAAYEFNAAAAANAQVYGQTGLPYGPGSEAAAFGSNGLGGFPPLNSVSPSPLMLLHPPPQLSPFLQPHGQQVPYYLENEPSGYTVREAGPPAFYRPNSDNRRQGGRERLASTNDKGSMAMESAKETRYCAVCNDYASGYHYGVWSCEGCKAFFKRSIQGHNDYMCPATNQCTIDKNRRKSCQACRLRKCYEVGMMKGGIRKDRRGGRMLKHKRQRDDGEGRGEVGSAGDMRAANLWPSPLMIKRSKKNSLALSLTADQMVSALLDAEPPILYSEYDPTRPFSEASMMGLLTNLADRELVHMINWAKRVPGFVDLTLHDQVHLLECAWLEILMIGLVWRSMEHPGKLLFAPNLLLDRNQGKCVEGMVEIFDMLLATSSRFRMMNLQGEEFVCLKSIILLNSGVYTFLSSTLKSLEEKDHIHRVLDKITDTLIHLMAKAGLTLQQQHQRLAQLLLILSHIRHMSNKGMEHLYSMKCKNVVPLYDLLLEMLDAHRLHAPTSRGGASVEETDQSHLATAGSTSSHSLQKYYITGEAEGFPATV

ERα [4] = target: T1, ERα; assay: Luciferase assay of A9 analogs in doxycycline-dependent U2OS cells (ER-TK-Luc or NKG2E-TK-Luc); assay type: cell-based; parameters: expressed in transfected cells; host or cells: doxycycline-dependent U2OS cells; conditions: in combination with E2; ER-TK-Luc (FIG. 9) and NKG2E-TK-Luc (FIG. 10); compared with A9R1-A9R4
Description: Luciferase Assay of A9 analogs. In order to better understand the structure-activity relationship of analogs of A9, the analogs A9R1, A9R2, A9R3, and A9R4 were prepared. See structures on FIG. 8. […] Luciferase activity results are shown in FIG. 9 (ER-TK-Luc) and FIG. 10 (NKG2E-TK-Luc).

ERβ = target: T2, ERβ (Homo sapiens, UniProt Q92731); assay: Luciferase activity in NKG2E-TK-Luc-transfected U2OS-ERβ cells with doxycycline; assay type: cell-based; conditions: in combination with E2, doxycycline, FIG. 7
T2 construct: expressed in transfected cells; host or cells: doxycycline-dependent U2OS cells
T2 sequence (Q92731 whole entry): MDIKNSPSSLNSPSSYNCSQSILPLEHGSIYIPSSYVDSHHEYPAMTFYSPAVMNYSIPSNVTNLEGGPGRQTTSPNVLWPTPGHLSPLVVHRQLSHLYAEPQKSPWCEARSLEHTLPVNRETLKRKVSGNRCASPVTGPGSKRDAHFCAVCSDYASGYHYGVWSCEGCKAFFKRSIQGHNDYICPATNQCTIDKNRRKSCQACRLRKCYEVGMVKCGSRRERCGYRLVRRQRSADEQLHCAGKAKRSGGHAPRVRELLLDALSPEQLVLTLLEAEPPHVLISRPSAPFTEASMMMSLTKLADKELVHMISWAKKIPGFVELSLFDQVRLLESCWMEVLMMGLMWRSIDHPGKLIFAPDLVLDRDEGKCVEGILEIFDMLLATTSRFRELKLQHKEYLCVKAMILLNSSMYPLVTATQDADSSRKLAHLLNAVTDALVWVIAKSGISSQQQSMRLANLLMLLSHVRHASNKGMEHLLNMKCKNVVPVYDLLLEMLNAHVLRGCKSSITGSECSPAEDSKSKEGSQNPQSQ
Description: Luciferase Activity in NKG2E-TK-Luc-Transfected U2OS-ERβ Cells with Doxycycline. […] Luciferase activity for each of the compounds was recorded.

[5] = compound (5 μM) in combination with E2, FIG. 4
[6] = compound (5 μM) in combination with E2, FIG. 11
[7] = compound alone (1 nM E2 or 5 μM compound), FIG. 11
[8] = in combination with E2, Ishikawa cells

SMILES: O=C(/C=C/c1ccccc1)c1ccc(O)c(O)c1O [CC7, 2′,3′,4′-trihydroxychalcone, reference compound]
- MCF-7 viable cell count / proliferation [1, 5]: well below the cell counts for E2 alone
- MCF-7 viable cell count / proliferation ([1]; compound alone (1 nM E2 or 5 μM compound), FIG. 4): well below the cell counts for E2 alone
- KRT19 expression (KRT19): large synergistic effect
- FGR expression (FGR; compound by itself, U2OS-ERα cells): not by either compound by itself
- FGR expression (FGR; in combination with E2, U2OS-ERα cells): activated by the combination of E2 and CC7 only
- MCF-7 viable cell count / proliferation [2, 6]: well below the control
- MCF-7 viable cell count / proliferation [2, 7]: well below the cell counts for E2 alone
- luciferase activity (ERE-TK-Luc) (ERα [3]; compound alone, Ishikawa cells): no effect
- luciferase activity (ERE-TK-Luc) (ERα [3]; [8]): demonstrated synergism with E2

SMILES: O=C(/C=C/c1ccccn1)c1ccc(O)c(O)c1O [Example A9, (E)-3-(pyridin-2-yl)-1-(2,3,4-trihydroxyphenyl)prop-2-en-1-one]
- MCF-7 viable cell count / proliferation [1, 5]: well below the control
- MCF-7 viable cell count / proliferation [2, 6]: well below the control
- MCF-7 viable cell count / proliferation [2, 7]: well below the cell counts for E2 alone
- luciferase activity (ERE-TK-Luc) (ERα [3]; compound alone, Ishikawa cells): no effect
- luciferase activity (ERE-TK-Luc) (ERα [3]; [8]): demonstrated synergism with E2
- luciferase activity, synergistic effect with E2 (ERα [4]): greatest synergistic effect with E2

SMILES: O=C(/C=C/c1ccccn1)c1ccc(O)cc1 [Example A9R1, (E)-1-(4-hydroxyphenyl)-3-(pyridin-2-yl)prop-2-en-1-one]
- MCF-7 viable cell count / proliferation [2, 6]: well below the control

SMILES: Cc1cc(O)ccc1C(=O)/C=C/c1ccccn1 [Example A9R2, (E)-1-(4-hydroxy-2-methylphenyl)-3-(pyridin-2-yl)prop-2-en-1-one]
- MCF-7 viable cell count / proliferation [2, 6]: well below the control

SMILES: O=C(/C=C/c1ccccn1)c1ccc(O)cc1O [Example A9R4, (E)-1-(2,4-dihydroxyphenyl)-3-(pyridin-2-yl)prop-2-en-1-one]
- MCF-7 viable cell count / proliferation [2, 6]: well below the control

SMILES: O=C(/C=C/c1cccc(O)c1)c1ccc(O)c(O)c1O [Example A10, (E)-3-(3-hydroxyphenyl)-1-(2,3,4-trihydroxyphenyl)prop-2-en-1-one]
- MCF-7 viable cell count / proliferation [1, 5]: well below the cell counts for E2 alone
- luciferase activity (NKG2E-TK-Luc), ERβ activity (ERβ): exceptional ERβ activity

SMILES: O=C(/C=C/c1ccc(O)cc1)c1ccc(O)cc1 [Example A13, (E)-1,3-bis(4-hydroxyphenyl)prop-2-en-1-one]
- luciferase activity (NKG2E-TK-Luc), ERβ activity (ERβ): exceptional ERβ activity

SMILES: O=C(/C=C/c1ccc(O)cc1)c1ccc(O)c(O)c1 [Example A14, (E)-1-(3,4-dihydroxyphenyl)-3-(4-hydroxyphenyl)prop-2-en-1-one]
- luciferase activity (NKG2E-TK-Luc), ERβ activity (ERβ): exceptional ERβ activity

SMILES: O=C(/C=C/c1ccc(O)cc1)c1ccccc1 [Example A15, (E)-3-(4-hydroxyphenyl)-1-phenylprop-2-en-1-one]
- luciferase activity (NKG2E-TK-Luc), ERβ activity (ERβ): exceptional ERβ activity
